# Assay results from US20090275515A1, “2-HYDROXY-2-PHENYLTHIOPHENYLPROPIONAMIDES AS ANDROGEN RECEPTOR MODULATORS” (priority 2006, published 2009).
# Experiment: biochemical assays (not further specified)
# Conditions: compound coupled from the second-peak acid 5-4 (RT=21 min)
compound,measurement,value
"O=C(NCc1cc(C(F)(F)F)ccn1)[C@](O)(c1ccccc1)C(F)(F)C(F)(F)F [Example 7, (2R)-3,3,4,4,4-Pentafluoro-2-hydroxy-2-phenyl-N-(4-trifluoromethyl-pyridin-2-ylmethyl)-butyramide]",activity in the biochemical assays,active
